Reference: patent US10179780B2, “Azole benzene derivative and crystalline form thereof” (TEIJIN PHARMA LIMITED, priority 2014, dated 2019)

Experiments:
[1] = test system: level of uric acid in the blood; experiment: Prolonged hypouricemic effect (normal rats), 24 hours after oral administration; assay type: in vivo, Sprague-Dawley male rats; details: 24 hours after administration
Protocol: The crystal form A of the compound (II) was administered to Sprague-Dawley male rats in the similar manner as Example 5.
After the blood was collected from the tail vein 24 hours after administration, the plasma was separated. The level of uric acid in the blood was measured by an uricase method using an absorption spectrometer and a uric acid determination kit (L type Wako UA F: Wako Pure Chemical Industries, Ltd.). The percentage of hypouricemic effect was determined by the following expression: Percentage of hypouricemic effect=(Level of uric acid of the control animal−Level of uric acid of the test compound-administered animal)×100/Level of uric acid of the control animal.

[2] = test system: level of uric acid in the plasma; experiment: Hypouricemic effect (oxonic acid-induced hyperuricemic beagle dogs); assay type: in vivo; details: hyperuricemic beagle dog, oral, 10 mg/kg, 8 hours after administration
Protocol: The hypouricemic effect was confirmed for the compounds (I) in oxonic acid-induced hyperuricmic beagle dog. […] Potassium oxonate (50 mg/kg) was subcutaneously administrated before and 4 hours after compound administration. After the blood was collected from the cephalic vein at 8 hours after administration, the plasma was separated. The level of uric acid in the plasma sample was measured by LC-MS/MS method and the percentage of hypouricemic effect was determined by the following expression: Percentage of hypouricemic effect (%)=(Level of uric acid of the control animal−Level of uric acid of the test compound-administered animal)×100/Level of uric acid of the control animal.

[3] = test system: level of uric acid in the blood; experiment: Hypouricemic effect (normal rats), 2 hours after oral administration; details: 2 hours after administration
Protocol: A test compound suspended in a 0.5% methylcellulose solution was administered to 8 to 9 week-old Sprague-Dawley male rats (Japan Charles River Co.) by oral gavage administration using a feeding needle. After the blood was collected from the tail vein at 2 hours after administration, the plasma was separated. The level of uric acid in the blood sample was measured by uricase method using an absorption spectrometer as well as a uric acid determination kit (L type Wako UA F: Wako Pure Chemical Industries, Ltd.). The percentage of hypouricemic effect was determined by the following expression: Percentage of hypouricemic effect (%)=(Level of uric acid of the control animal−Level of uric acid of the test compound-administered animal)×100/Level of uric acid of the control animal.

[4] = Solubility into JP2 solution (pH 6.8); assay type: physicochemical
Protocol: The solubility of the compound (II) in JP2 solution (pH 6.8) was confirmed. A solution was prepared by mildly pulverizing the crystals A of the compound (II) in a mortar, and adding approximately 4 mg of the pulverized crystals to […] of JP2 solution while stirring at room temperature. The absorbance (At) of each solution at 280 nm was successively measured immediately after the addition of the crystals using an ultraviolet-visible absorbance measurement method and the solubility at each measurement time was determined by the following expression using the absorbance (As) of a standard solution at 280 mu determined in advance as an index. The measurement was continued until 120 minutes. Solubility=At/As×Cs (where Cs represents the concentration of a standard solution) • Measurement apparatus: μDISS Profiler manufactured by Pion Inc. • Stirring rate: 700 rpm • UV measurement wavelength: 280 nm • Measurement interval: Start of measurement to 1 minute: 3 seconds • 1 to 8 minutes: 20 seconds • 8 to 120 minutes: 2 minutes

For `Cc1nc(-c2ccc(OCC(C)C)c(-n3cnnn3)c2)sc1C(=O)O` [compound (I), 4-methyl-2-[4-(2-methylpropoxy)-3-(1H-1,2,3,4-tetrazol-1-yl)phenyl]-1,3-thiazole-5-carboxylic acid], which “Percentage of hypouricemic effect” value ([1]; 3 mg/kg) is on record?
The value was at least 40%.

What about the “Percentage of hypouricemic effect” value ([1]; 10 mg/kg) of the same compound?
Its value is at least 50%.

And the hypouricemic effect [2]?
The hypouricemic effect was “showed a hypouricemic effect”.

What about the “Percentage of hypouricemic effect” value ([3]; 1 mg/kg) of the same compound?
The value was at least 50%.

What about the “Percentage of hypouricemic effect” value ([3]; 10 mg/kg) of the same compound?
Its value is at least 50%.

For `Cc1nc(-c2ccc(OCC(C)C)c(-n3cnnn3)c2)sc1C(=O)[O-].[Na+]` [compound (II), sodium 4-methyl-2-[4-(2-methylpropoxy)-3-(1H-1,2,3,4-tetrazol-1-yl)phenyl]-1,3-thiazole-5-carboxylate], which “Percentage of hypouricemic effect” value ([1]; 3 mg/kg) is on record?
Its value is at least 40%.

And the “Percentage of hypouricemic effect” value ([1]; 10 mg/kg)?
Its value is at least 50%.

What about the “Precipitation / maintenance of dissolved state” value ([4]; JP2 solution pH 6.8, up to 120 minutes after the addition) of the same compound?
Its value is “no precipitation was observed”.

What about the “Time until total amount was dissolved” value ([4]; approximately 4 mg of pulverized crystals in JP2 solution pH 6.8, 700 rpm) of the same compound?
Its value is at most 30 s.

And the solubility at 120 minutes ([4]; aqueous buffer, thermodynamic from solid, JP2 solution pH 6.8, room temperature, at 120 minutes after the addition)?
Its solubility at 120 minutes is 184 µg/mL.

And the solubility at 30 seconds ([4]; aqueous buffer, thermodynamic from solid, JP2 solution pH 6.8, room temperature, total amount dissolved within 30 seconds after the addition)?
Its solubility at 30 seconds is 187 µg/mL.

And the “Percentage of hypouricemic effect” value ([3]; 1 mg/kg)?
Its value is at least 50%.

What about the “Percentage of hypouricemic effect” value ([3]; 10 mg/kg) of the same compound?
The value was at least 50%.
